Legend:
Pim-1 = biological target: T1, Pim-1 (Homo sapiens, UniProt P11309); assay: TR-FRET assay of Pim kinase activity (phosphorylation of Bad Ser112), Pim-1; assay type: biochemical; conditions: ATP 40 μM, read-out: IC50 Pim1
T1 construct: full-length human recombinant His6-labelled Pim-1, Pim-2 or Pim-3 protein; His6; made in house
Procedure, shortened: (§1)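 Full-length His6-tagged human Pim-1, -2 or -3 phosphorylate full-length His6-Bad at 40 μM ATP; phospho-Ser112 detected by TR-FRET (Eu anti-phosphoBad, APC anti-His6), 665/615 nm ratio. Compounds run at 10 concentrations in duplicate, typically top 30 μM; IC50 from 4-parameter logistic fit.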

Pim-2 = biological target: T2, Pim-2 (Homo sapiens, UniProt Q9P1W9); assay: TR-FRET assay of Pim kinase activity (phosphorylation of Bad Ser112), Pim-2; assay type: biochemical; conditions: ATP 40 μM, read-out: IC50 Pim2
T2 construct: full-length human recombinant His6-labelled Pim-1, Pim-2 or Pim-3 protein; His6; made in house
Procedure, shortened: as §1

Pim-3 = biological target: T3, Pim-3 (Homo sapiens, UniProt Q86V86); assay: TR-FRET assay of Pim kinase activity (phosphorylation of Bad Ser112), Pim-3; assay type: biochemical; conditions: ATP 40 μM, read-out: IC50 Pim3
T3 construct: full-length human recombinant His6-labelled Pim-1, Pim-2 or Pim-3 protein; His6; made in house
Procedure, shortened: as §1

CDK1 = CDK1 (Homo sapiens, UniProt P06493); assay: Biochemical results, IC50 CDK1
PLK1 = PLK1 (Homo sapiens, UniProt P53350); assay: Biochemical results, IC50 PLK1
EOL-1 = assay: Cell viability assay (CellTiter-Blue), EOL-1; assay type: cell-based; conditions: Homo sapiens, EOL1, read-out: EC50 EOL-1 μM (eosinophilic leukaemia), EOL-1 cells, read-out: EC50 EOL-1 μM (lymphoma);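 further: EOL-1 is an acute myeloid eosinophilic leukaemia line not a lymphoma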
Procedure, shortened: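 Cells exposed 48, 72 or 96 h (preferably 72 h) to nine 3-fold dilutions, top dose 10 μM or 30 μM. Viability read by resazurin-to-resorufin fluorescence after 4 h CellTiter-Blue; EC50 is concentration giving 50% reduction in viability/proliferative expansion.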

MV4-11 = assay: Cell viability assay (CellTiter-Blue), MV4-11; assay type: cell-based; conditions: Homo sapiens, read-out: EC50 MV4-11 μM (acute myeloid leukemia), MV4-11 cells, read-out: EC50 MV4-11 μM (myeloma)
Procedure, shortened: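 MOLM-13 or MV4-11 cells incubated 48, 72 or 96 h (preferably 72 h) with nine 3-fold compound dilutions, top dose 10 μM or 30 μM. Viability read by CellTiter-Blue resazurin reduction over 4 h (fluorescence). EC50 is the concentration giving 50% reduction of viability/proliferative expansion.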

MOLM-13 = assay: Cell viability assay (CellTiter-Blue), MOLM-13; assay type: cell-based; conditions: Homo sapiens, read-out: EC50 MOLM-13 μM, MOLM-13 cells, read-out: EC50 MOLM-13 μM (myeloma)
Procedure: The representative compounds of the invention are also screened as regards their effects on cell proliferation and viability, using a variety of tumoral cell lines of human source, representative of different pathological indications. These cell lines include:
In order to measure the viability, the tumour cells are incubated in 96-well or 384-well format for 48, 72 or 96 hours, preferably 72 hours, with a compound of the invention at dilutions of a factor 3, with, in general, nine doses in total, the highest dose being equal to 10 μM or 30 μM. The cell viability is evaluated by adding CellTiter-Blue® (Promega, Madison, Wis., United States) for 4 hours and endpoint readings are taken using a SpectraMax Genmini EM plate reader (Molecular Devices, Sunnyvale, Calif., United States). The CellTiter-Blue® cell viability assay measures the ability of the cells in culture to reduce resazurin to resorufin, the intensity of the fluorescence signal being directly proportional to the number of live cells. The EC50 represents the concentration of compound that leads to a 50% reduction of the viability/proliferative expansion of the cells.

phosphoBAD (JEKO) = assay: Level of phosphorylation of Bad by ELISA, JEKO cell line; assay type: cell-based; conditions: Homo sapiens, JEKO cells, 3 hours at 37° C.
Procedure: (§2) The activity of the molecules is evaluated on the JEKO or DND-41 cell line by measuring the level of phosphorylation of Bad and the total Bad content, via the ELISA technique.
(§3) The JEKO or DND-41 cells are resuspended at a concentration of 500 000 cells per ml. The cells are then diluted in RPMI-1640 medium containing 20% foetal calf serum. 225 μl of cells are placed in a plate. Serial dilutions of the molecules are then performed (8 points, three-fold dilution, range started at 10 mM). Each dilution point is then diluted to 1/100 in medium. Next, 25 μl of each of the concentrations are added to the cells and then incubated for 3 hours at 37° C.
(§4) 100 μl of the cells are transferred into a plate treated with poly-D-Lysine. The plate is then incubated for 5-10 minutes at 37° C. and then centrifuged for 5 minutes at 1500 rpm. A volume of 100 μl of 8% fixing solution (solution of formaldehyde in PBS buffer) is added to each of the wells. After covering with a self-adhesive film and a lid, the plate is incubated for 20 minutes at room temperature and then stored at 4° C. overnight.
(§5) Next, the liquid is removed and two successive washes are performed with washing buffer. 100 μl of quenching buffer are added, followed by incubating for 15 minutes at room temperature. After washing, 100 μl of […] at room temperature. After washing, 50 μl of primary antibody diluted to 1/250 for pBAD (Cell Signaling Cat#5284) and to 1/500 for Bad (MBL Cat#591) are added to each of the plates. Each plate is incubated for 2 hours at room temperature. After two washes, 50 μl of secondary antibody (diluted to 1/16) are added to the pBAD plate (tebu-bio ref; FE-021) and 50 μl of the HRP-conjugated IgG secondary antibody (Santa Cruz Cat #SC-2004; diluted to 1/1000) are added to the Bad plate. Incubation for 1 hour at room temperature is performed. Four washes with the washing solution are performed, followed by three washes with PBS. Finally, 100 μl of the developing solution are added, followed by incubation for 10 minutes. Finally, 100 μl of the quenching solution are added, before reading at 450 nm.

phosphoBAD (DND-41) = assay: Level of phosphorylation of Bad by ELISA, DND-41 cell line; assay type: cell-based; conditions: Homo sapiens, DND41, DND-41 cells, 3 hours at 37° C.
Procedure: as §2, §3, §4, §5

T1 sequence (P11309 whole entry): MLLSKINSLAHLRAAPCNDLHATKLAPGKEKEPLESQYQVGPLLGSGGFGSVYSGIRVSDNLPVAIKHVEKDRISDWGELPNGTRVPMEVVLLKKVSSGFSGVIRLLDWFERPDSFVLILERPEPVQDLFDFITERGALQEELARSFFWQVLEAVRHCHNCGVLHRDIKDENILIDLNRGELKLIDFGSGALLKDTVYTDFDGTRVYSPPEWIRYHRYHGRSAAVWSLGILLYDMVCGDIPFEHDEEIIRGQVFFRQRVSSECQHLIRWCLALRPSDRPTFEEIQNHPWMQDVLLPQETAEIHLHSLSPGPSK
Chain of PLK1 (P53350 whole entry, species assumed): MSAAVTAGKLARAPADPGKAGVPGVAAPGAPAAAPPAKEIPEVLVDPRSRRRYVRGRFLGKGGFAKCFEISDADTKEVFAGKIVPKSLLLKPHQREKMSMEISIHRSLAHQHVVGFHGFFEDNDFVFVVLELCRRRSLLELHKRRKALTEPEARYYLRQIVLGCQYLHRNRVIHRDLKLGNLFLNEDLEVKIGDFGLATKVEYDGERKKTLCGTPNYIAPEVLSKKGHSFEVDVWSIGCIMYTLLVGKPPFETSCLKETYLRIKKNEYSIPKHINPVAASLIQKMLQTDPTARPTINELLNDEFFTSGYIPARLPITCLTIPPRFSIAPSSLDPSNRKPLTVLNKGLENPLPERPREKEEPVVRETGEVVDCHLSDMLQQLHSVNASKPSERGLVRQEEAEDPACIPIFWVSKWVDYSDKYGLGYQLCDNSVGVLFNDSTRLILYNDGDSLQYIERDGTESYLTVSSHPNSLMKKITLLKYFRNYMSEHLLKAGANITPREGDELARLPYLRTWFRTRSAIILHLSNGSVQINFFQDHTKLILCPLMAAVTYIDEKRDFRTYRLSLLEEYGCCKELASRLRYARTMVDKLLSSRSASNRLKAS
Chain of CDK1 (P06493 whole entry, species assumed): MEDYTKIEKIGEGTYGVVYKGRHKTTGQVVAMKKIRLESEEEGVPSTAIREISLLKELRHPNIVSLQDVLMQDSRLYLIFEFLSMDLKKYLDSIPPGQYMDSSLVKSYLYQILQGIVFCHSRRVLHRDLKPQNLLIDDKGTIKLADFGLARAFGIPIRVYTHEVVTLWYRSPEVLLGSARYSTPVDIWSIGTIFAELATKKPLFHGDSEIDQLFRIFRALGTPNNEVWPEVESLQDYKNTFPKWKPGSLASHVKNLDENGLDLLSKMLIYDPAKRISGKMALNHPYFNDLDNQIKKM
Chain of CDK1 (P14635 whole entry partner, species assumed): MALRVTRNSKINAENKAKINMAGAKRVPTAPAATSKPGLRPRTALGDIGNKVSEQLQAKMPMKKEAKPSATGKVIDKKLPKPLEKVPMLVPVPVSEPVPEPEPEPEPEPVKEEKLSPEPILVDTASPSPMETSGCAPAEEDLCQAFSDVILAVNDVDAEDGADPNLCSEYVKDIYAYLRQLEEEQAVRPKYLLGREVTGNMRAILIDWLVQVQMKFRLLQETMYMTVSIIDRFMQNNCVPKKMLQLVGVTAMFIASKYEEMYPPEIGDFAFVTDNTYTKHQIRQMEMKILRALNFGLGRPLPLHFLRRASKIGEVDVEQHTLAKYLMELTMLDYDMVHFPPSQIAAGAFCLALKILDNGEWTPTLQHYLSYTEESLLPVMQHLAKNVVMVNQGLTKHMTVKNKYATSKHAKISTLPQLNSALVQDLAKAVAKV
T2 sequence (Q9P1W9 whole entry): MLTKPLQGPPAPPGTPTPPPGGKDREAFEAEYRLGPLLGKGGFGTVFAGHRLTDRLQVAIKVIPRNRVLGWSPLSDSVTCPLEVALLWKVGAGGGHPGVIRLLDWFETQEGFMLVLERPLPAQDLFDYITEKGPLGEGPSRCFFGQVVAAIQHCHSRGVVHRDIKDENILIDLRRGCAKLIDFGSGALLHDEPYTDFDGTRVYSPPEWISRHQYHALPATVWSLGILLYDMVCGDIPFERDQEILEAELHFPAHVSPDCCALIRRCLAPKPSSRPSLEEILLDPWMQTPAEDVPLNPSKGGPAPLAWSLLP

| SMILES | IC50 (Pim-1) | IC50 (Pim-2) | IC50 (Pim-3) | IC50 (CDK1) | IC50 (PLK1) | EC50 (EOL-1) | EC50 (MV4-11) | EC50 (MOLM-13) | IC50 (phosphoBAD (JEKO)) | IC50 (phosphoBAD (DND-41)) |
| --- | --- | --- | --- | --- | --- | --- | --- | --- | --- | --- |
| CN(C)CCNC(=O)c1ccc(-c2c(F)cnc3[nH]c4cnc(-c5cccnc5)cc4c23)cc1 [Example 9, N-[2-(dimethylamino)ethyl]-4-[3-fluoro-6-(pyridin-3-yl)-9H-pyrrolo-[2,3-b:5,4-c′]dipyridin-4-yl]benzamide] | < 0.1 µM | < 0.1 µM | < 0.1 µM | 0.1 to 1 µM | 0.1 to 1 µM | < 0.1 µM | < 0.1 µM | 0.1 to 1 µM | 0.1 to 1 µM | 1 to 5 µM |
| O=C(NC1CC1)c1ccc(-c2c(F)cnc3[nH]c4cnc(-c5cccnc5)cc4c23)cc1 [Example 11, N-cyclopropyl-4-[3-fluoro-6-(pyridin-3-yl)-9H-pyrrolo[2,3-b:5,4-c′]dipyridin-4-yl]benzamide] | < 0.1 µM | 1 to 5 µM | 0.1 to 1 µM |  |  |  |  |  | 0.1 to 1 µM |  |
| CN1CCC(NC(=O)c2ccc(-c3c(F)cnc4[nH]c5cnc(-c6cccnc6)cc5c34)cc2)CC1 [Example 22, 4-[3-fluoro-6-(pyridin-3-yl)-9H-pyrrolo[2,3-b:5,4-c′]dipyridin-4-yl]-N-(1-methylpiperidin-4-yl)benzamide] | < 0.1 µM | 0.1 to 1 µM | < 0.1 µM | 1 to 5 µM | 1 to 5 µM | 0.1 to 1 µM | 0.1 to 1 µM |  | 1 to 5 µM |  |
| CN(C)CCN(C)C(=O)c1ccc(-c2c(F)cnc3[nH]c4cnc(-c5cccnc5)cc4c23)cc1 [Example 23, N-[2-(dimethylamino)ethyl]-4-[3-fluoro-6-(pyridin-3-yl)-9H-pyrrolo[2,3-b:5,4-c′]dipyridin-4-yl]-N-methylbenzamide] | < 0.1 µM | < 0.1 µM | < 0.1 µM | 1 to 5 µM | 0.1 to 1 µM |  |  |  | 0.1 to 1 µM | 0.1 to 1 µM |
| CN1CCN(CCNC(=O)c2ccc(-c3c(F)cnc4[nH]c5cnc(-c6cccnc6)cc5c34)cc2)CC1 [Example 24, 4-[3-fluoro-6-(pyridin-3-yl)-9H-pyrrolo[2,3-b:5,4-c′]dipyridin-4-yl]-N-[2-(4-methylpiperazin-1-yl)ethyl]benzamide] | < 0.1 µM | 1 to 5 µM | < 0.1 µM | 1 to 5 µM | 1 to 5 µM | 0.1 to 1 µM | 0.1 to 1 µM |  | 0.1 to 1 µM | 1 to 5 µM |
| CN1CCC(CNC(=O)c2ccc(-c3c(F)cnc4[nH]c5cnc(-c6cccnc6)cc5c34)cc2)CC1 [Example 25, 4-[3-fluoro-6-(pyridin-3-yl)-9H-pyrrolo[2,3-b:5,4-c′]dipyridin-4-yl]-N-[(1-methylpiperidin-4-yl)methyl]benzamide] | < 0.1 µM | 1 to 5 µM | < 0.1 µM | 1 to 5 µM | 1 to 5 µM | 0.1 to 1 µM | 0.1 to 1 µM |  | 1 to 5 µM | 0.1 to 1 µM |
| CC(C)(N)CNC(=O)c1ccc(-c2c(F)cnc3[nH]c4cnc(-c5cccnc5)cc4c23)cc1 [Example 26, N-(2-amino-2-methylpropyl)-4-[3-fluoro-6-(pyridin-3-yl)-9H-pyrrolo[2,3-b:5,4-c′]dipyridin-4-yl]benzamide] | < 0.1 µM | < 0.1 µM | < 0.1 µM | 1 to 5 µM | 0.1 to 1 µM |  |  |  | 1 to 5 µM |  |
| CN(C)CCNC(=O)c1ccc(-c2ccnc3[nH]c4cnc(-c5cnn(C)c5)cc4c23)cc1 [Example 44] | < 0.1 µM | < 0.1 µM | < 0.1 µM | 0.1 to 1 µM | 0.1 to 1 µM | < 0.1 µM | < 0.1 µM |  | 0.1 to 1 µM | 0.1 to 1 µM |
